The source of these data is patent US20200368211A1, “INHIBITION OF GAMMA-GLUTAMYLTRANSFERASE AND GLUTATHIONE CATABOLISM TO ENHANCE THE EFFICACY OF NF-KB SIGNALLING PATHWAY INHIBITORS” (UNIVERSITAET HEIDELBERG, priority 2017, published 2020).

Common to all, as to format: cell-based, human
The test system of assay [1] is MEC1 cells. As to the kind of experiment: MTT cell proliferation assay, MEC1 cells. As for the experimental part:
For metabolic activity assays, here MTT-assays, cell density was 3×10^4 cells per well (96 well plate). For ROS/superoxide detection assays cell density was 1×10^5 per tube (volume 1 ml). For NF-κB family member activation assays nuclear cell extracts were used (9×10^6 cells/6 ml volume in 6 well plates). The MTT or XTT assay is the most reliable for assessment of cell growth. In principal all assays are based on staining of viable cells after treatment. Cytotoxic effects in cell lines may also be assessed by [^3H] thymidine incorporation (see below). Cell proliferation was assessed by the MTT assay. […] The plates were incubated for 72 h under standard conditions. After addition of 15 μl of a 5 mg/ml MTT solution (MTT; Sigma, Germany) to each well and incubation for another 4 h, 100 μl/well of a 10% sodium dodecyl sulphate solution in 0.01 M hydrochloric acid were added and the plates were incubated overnight under the same conditions (stain development). Subsequently, the absorbance of each well at 540 nm (reference wavelength 690 nm) was recorded with an absorbance plate reader (Sunrise, Tecan, Switzerland). Blank control values (no drug, no cells) were subtracted from the sample values and the means of replicate wells for each drug dilution and the control (cells grown in absence of the drug) were used to calculate the extent of relative cell proliferation (as percentage of the control) and growth inhibition.
On the technique in general: Formazan colour is commonly taken as a measure of viable cells.

A further assay concerns HL60 cells. In words: MTT cell proliferation assay, HL60 cells. As for the experimental part:
For assessment of cytostatic and/or cytotoxic effects HL60 cells were washed in serum-free RPMI-1640 medium supplemented with 2 mM L-glutamine and 1% penicillin/streptomycin and diluted to 1.25×10^5/ml (logarithmic cell growth). Cells were incubated with OU749 for 10 minutes prior to addition of serum (FCS or HS, both 10%) to washed cells resulting in a density of 1.11×10^5/ml. For MTT-assays cell density was 1×10^4 cells per well (96 well plate).
The MTT or XTT assay is the most reliable for assessment of cell growth. In principal all assays are based on staining of viable cells after treatment. Cytotoxic effects in cell lines may also be assessed by [^3H] thymidine incorporation (see below). Cell proliferation was assessed by the MTT assay. After washing in serum-free medium, pre-incubation with inhibitors of the glutathione catabolism, and addition of defined serum or albumin or serum+albumin concentrations, 90-μl aliquots of the cell suspension (density see above) were dispensed into 96-well flat-bottomed microtitre plates containing 10 μl/well of serial drug dilutions. The plates were incubated for 72 h under standard conditions. After addition of 15 μl of a 5 mg/ml MTT solution (MTT; Sigma, Germany) to each well and incubation for another 4 h, 100 μl/well of a 10% sodium dodecyl sulphate solution in 0.01 M hydrochloric acid were added and the plates were incubated overnight under the same conditions (stain development). Subsequently, the absorbance of each well at 540 nm (reference wavelength 690 nm) was recorded with an absorbance plate reader (Sunrise, Tecan, Switzerland). Blank control values (no drug, no cells) were subtracted from the sample values and the means of replicate wells for each drug dilution and the control (cells grown in absence of the drug) were used to calculate the extent of relative cell proliferation (as percentage of the control) and growth inhibition. Since inhibitors were initially dissolved in DMSO, serial drug dilutions and controls were prepared to finally achieve 0.2% DMSO in all wells (total volume 100 μl); no anti-proliferative effects could be observed at this DMSO concentration in the investigated cell lines.
After washing in serum-free medium cells were diluted to desired density (3.70×10^5/ml for MEC1 and MOLM13, 1.25×10^5/ml for HL60) and HS and FCS was added both in a final concentration of 10%. Then 90-μl aliquots of the cell suspension (densities after addition of serum: 3.33×10^5/ml for MEC1 and MOLM13, 1.1×10^5/ml for HL60) were dispensed into 96-well flat-bottomed microtitre plates containing 10 μl/well of serial drug dilutions of NF-κB inhibitors. The cell concentrations in the 96 well plate were: 3×10^4/well for MEC1 and MOLM13, 1×10^4/well for HL60.
Then 90-μl aliquots of the cell suspension (densities after addition of serum: 3.33×10^5/ml for MEC1 and MOLM13, 1.1×10^5/ml for HL60) were dispensed into 96-well flat-bottomed microtitre plates containing 10 μl/well of serial drug dilutions of NF-κB inhibitors. The cell concentrations in the 96 well plates were: 3×10^4/well for MEC1 and MOLM13, 1×10^4/well for HL60.

Assay [2] relates to MEC1 cells. As to the kind of experiment: Intracellular ROS/superoxide detection by flow cytometry, MEC1 cells. To be noted: 10% FCS (OU749 100 μM) and 10% HS (OU749 200 μM); sorafenib 10 μM. Here is the method:
Intracellular ROS/superoxide levels were assessed by the ROS/superoxide Detection Assay Kit (ab139476, Abcam, Cambridge, UK) according to the manufacturer's protocol.
Cells were incubated with OU749 for 10 minutes prior to addition of serum or albumin (FCS or HS, both 10%, BSA or different HSA preparations as indicated), or albumin-supplemented FCS (supplementation with HSA or BSA: final albumin concentration 4-5 mg/ml). The final cell concentration was 1×10^5/ml/tube (volume 1 ml). Mean fluorescence intensities of at least 10000 events were assessed and compared.
ROS and superoxide levels were assessed by flow cytometry using the cellular ROS/superoxide Detection Assay Kit (ab139476, Abcam, Cambridge, UK) according to the manufacturer's protocol. […] Mean fluorescence intensities of at least 10000 events were assessed and compared.

Where [3] appears, read: 10% HS, DMSO control, 72 h treatment, read-out: IC50, proliferation of MEC1 cells in HS, DMSO control.
[4] abbreviates: 10% HS, plus 200 μM OU749, 72 h treatment, read-out: IC50, proliferation of MEC1 cells in HS after addition of OU749.
The mark [5] stands for this setting: 10% fetal calf serum, 72 h treatment, read-out: IC50, proliferation of MEC1 cells, FCS 10%.
Setting [6] is: 10% human serum, 72 h treatment, read-out: IC50, proliferation of MEC1 cells, HS 10%.
[7] abbreviates: 10% HS, DMSO control, 72 h treatment, read-out: IC50, proliferation of HL60 cells in HS, DMSO control.
Setting [8] is: 10% HS, plus 200 μM OU749, 72 h treatment, read-out: IC50, proliferation of HL60 cells in HS after addition of OU749.
Where [9] appears, read: 10% fetal calf serum, 72 h treatment, read-out: IC50, proliferation of HL60 cells, FCS 10%.
Setting [10] is: 10% human serum, 72 h treatment, read-out: IC50, proliferation of HL60 cells, HS 10%.
[11] abbreviates: Homo sapiens, MEC1, 10% HS, DMSO control, 72 h treatment, read-out: IC50, proliferation of MEC1 cells in HS, DMSO control.
Where [12] appears, read: Homo sapiens, MEC1, 10% HS, plus 200 μM OU749, 72 h treatment, read-out: IC50, proliferation of MEC1 cells in HS after addition of OU749.
[13] abbreviates: Homo sapiens, MEC1, 10% fetal calf serum, 72 h treatment, read-out: IC50, proliferation of MEC1 cells, FCS 10%.
[14] abbreviates: MEC1, 10% human serum, 72 h treatment, read-out: IC50, proliferation of MEC1 cells, HS 10%.
[15] abbreviates: HL-60, 10% human serum, 72 h treatment, read-out: IC50, proliferation of HL60 cells, HS 10%.
Setting [16] is: Homo sapiens, HL-60, 10% HS, DMSO control, 72 h treatment, read-out: IC50, proliferation of HL60 cells in HS, DMSO control.
Setting [17] is: Homo sapiens, HL-60, 10% HS, plus 200 μM OU749, 72 h treatment, read-out: IC50, proliferation of HL60 cells in HS after addition of OU749.
The mark [18] stands for this setting: Homo sapiens, HL-60, 10% fetal calf serum, 72 h treatment, read-out: IC50, proliferation of HL60 cells, FCS 10%.

Where two headings read alike, the source gives them in different places.

Regarding `Cc1ccc(S(=O)(=O)/C=C/C#N)cc1` [Bay 11-7082], the IC50 was found to be 9.15 ± 1.73 µM in the assay on MEC1 cells [1] (setting [3]); 4.64 ± 0.41 µM with MEC1 cells [1] (setting [4]); 1.85 ± 0.04 µM in the assay with MEC1 cells [1] (setting [5]); 9.15 ± 1.73 µM in the assay with MEC1 cells [1] (setting [6]); 5.04 ± 0.32 µM in the assay with HL60 cells (setting [7]); 2.9 ± 0.16 µM with HL60 cells (setting [8]). In addition, the results for the IC50 in the assay on HL60 cells (setting [9]) and in the assay with HL60 cells (setting [10]) were 2.47 ± 0.3 µM and 5.04 ± 0.32 µM, respectively. The “Intracellular ROS, NF-κB inhibitor in combination with γ-GT inhibitor, MEC1” value (shortened to “Intracellular ROS, NF-κB inhibitor”) with MEC1 cells [2] is listed as “increases the levels of intracellular ROS”.

As to `O=C1/C(=C/c2ccccc2F)CNC/C1=C\c1ccccc1F` [EF24], the IC50 with MEC1 cells [1] (setting [3]) was 13.8 ± 4.93 µM; with MEC1 cells [1] (setting [4]), 1.06 ± 0.25 µM; with MEC1 cells [1] (setting [5]) it was 1.66 ± 0.44 µM; in the assay with MEC1 cells [1] (setting [6]), 13.8 ± 4.93 µM; in the assay on HL60 cells (setting [7]) it was 4.27 ± 0.1 µM; in the assay on HL60 cells (setting [8]), 0.67 ± 0.15 µM. Also, the IC50 in the assay with HL60 cells (setting [9]) is 1.75 ± 0.33 µM; in the assay with HL60 cells (setting [10]), 4.27 ± 0.1 µM. For the same molecule, the “Intracellular ROS, NF-κB inhibitor” value in the assay on MEC1 cells [2] is “increases the levels of intracellular ROS”.

For `Cc1oncc1C(=O)Nc1ccc(C(F)(F)F)cc1` [Leflunomide, leflunomide], the IC50 with MEC1 cells [1] (setting [11]) was 586 ± 29.8 µM; in the assay on MEC1 cells [1] (setting [12]), 176 ± 22.1 µM; in the assay with MEC1 cells [1] (setting [13]) it was 72.5 ± 5.12 µM; with MEC1 cells [1] (setting [14]), 586 ± 29.8 µM; in the assay with HL60 cells (setting [15]), 77.1 ± 2.91 µM; in the assay on HL60 cells (setting [16]) it was 77.1 ± 2.91 µM. Besides, the IC50 in the assay with HL60 cells (setting [17]) came out at 20.3 ± 4.53 µM; in the assay with HL60 cells (setting [18]) it was 16.3 ± 1.12 µM. The “Intracellular ROS, NF-κB inhibitor” value with MEC1 cells [2] is “increases the levels of intracellular ROS”.

Regarding `CNC(=O)c1cc(Oc2ccc(NC(=O)Nc3ccc(Cl)c(C(F)(F)F)c3)cc2)ccn1` [Sorafenib, sorafenib], the IC50 in the assay with MEC1 cells [1] (setting [11]) is 34.2 ± 2.9 µM; with MEC1 cells [1] (setting [12]) it was 12.7 ± 1.18 µM; in the assay with MEC1 cells [1] (setting [13]) it was 3.03 µM; in the assay with MEC1 cells [1] (setting [14]), 34.2 µM; in the assay with HL60 cells (setting [15]) it was 35.2 ± 10 µM; in the assay on HL60 cells (setting [16]) it was 35.2 ± 10.3 µM. For the same molecule, the IC50 is 9.65 ± 1.06 µM in the assay on HL60 cells (setting [17]) and 1.44 µM in the assay on HL60 cells (setting [18]). Moreover, the “Intracellular ROS, NF-κB inhibitor” value with MEC1 cells [2] is recorded as “increases the levels of intracellular ROS”.
